Data: article PMC7029851, “Antibacterial activity of novel dual bacterial DNA type II topoisomerase inhibitors” (PLoS ONE, 2020)
Counter-ions that a name gives are not always drawn.

Experiments:
A. baumannii APV00473 = assay: MIC, broth microdilution; format: cell-based; details: Acinetobacter baumannii; A. baumannii APV00473, ciprofloxacin-resistant
Experimental: (§1) MICs were determined by the broth microdilution method (the agar dilution method was used only for N. gonorrhoeae) according to CLSI guidelines.

A. baumannii ATCC 19606 = assay: MIC, broth microdilution; format: cell-based; details: Acinetobacter baumannii, ATCC19606; A. baumannii ATCC 19606, ciprofloxacin-susceptible
Experimental: as §1

E. coli 4SI = assay: MIC, broth microdilution; format: cell-based; details: Escherichia coli, ciprofloxacin-resistant
Experimental: as §1

S. pyogenes APV00074 = assay: MIC, broth microdilution; format: cell-based; details: Streptococcus pyogenes; S. pyogenes APV00074, ciprofloxacin-susceptible
Experimental: as §1

S. pyogenes APV00083 = assay: MIC, broth microdilution; format: cell-based; details: Streptococcus pyogenes; S. pyogenes APV00083, ciprofloxacin-susceptible
Experimental: as §1

[1] = test system: H. influenzae AcrA- mutant; assay: microbe, parasite or virus in culture; format: cell-based; details: Haemophilus influenzae
Experimental: (§2) The bacterial reference strains used in this study were purchased from ATCC (American Type Culture Collection) via LGC Standards (Middlesex, UK). […] Clinical MDR isolates were provided by Aptuit, the IHMA Europa Sàrl repository (Epalinges, Switzerland) and the Statens Serum Institute (Copenhagen, Denmark).
as §1

[2] = test system: K. pneumoniae AcrAB- mutant; assay: microbe, parasite or virus in culture; format: cell-based; details: Klebsiella pneumoniae
Experimental: as §2, §1

[3] = test system: S. aureus clinical isolates (n = 10); assay: microbe, parasite or virus in culture; format: cell-based, Staphylococcus aureus; details: S. aureus MDR clinical isolates (n = 10); for MIC50 / MIC90: Staphylococcus aureus; for MIC50: read-out: MIC50; for MIC90: read-out: MIC90
Experimental: as §2, §1
(§3) The results obtained using clinical isolates are reported as MIC50 and MIC90 values.

[4] = test system: A. baumannii clinical isolates (n = 10); assay: microbe, parasite or virus in culture; format: cell-based, Acinetobacter baumannii; details: for MIC50 / MIC90: Acinetobacter baumannii
Experimental: as §2, §1, §3

C. difficile ATCC 700057 = assay: MIC, broth microdilution; format: cell-based, Clostridium difficile; details: Clostridioides difficile, ATCC700057
Experimental: MICs were determined by the broth microdilution method (the agar dilution method was used only for N. gonorrhoeae) according to CLSI guidelines. […] The MIC values of antibiotics used in clinical practice were interpreted according to the susceptibility interpretive criteria reported in the appropriate CLSI Tables (M100-S25, CLSI, 2015).

[5] = test system: C. difficile clinical isolates (n = 21); assay: MIC, multidrug-resistant clinical isolates; format: cell-based, Clostridium difficile; details: Clostridioides difficile, C. difficile clinical isolates (n = 21); for MIC50: read-out: MIC50; for MIC90: read-out: MIC90; for MIC: read-out: MIC range
Experimental: as §2, §1, §3

[6] = test system: E. coli clinical isolates (n = 36); assay: MIC, multidrug-resistant clinical isolates; format: cell-based, Escherichia coli; details: Escherichia coli, E. coli MDR clinical isolates (n = 36); for MIC50: read-out: MIC50; for MIC90: read-out: MIC90
Experimental: as §2, §1, §3

SMILES | MIC (A. baumannii APV00473) | MIC (A. baumannii ATCC 19606) | MIC (E. coli 4SI) | MIC (S. pyogenes APV00074) | MIC (S. pyogenes APV00083) | MIC [1] | MIC [2] | MIC range [3] | MIC50 [3] | MIC90 [3] | MIC range [4] | MIC50 [4] | MIC90 [4] | MIC (C. difficile ATCC 700057) | MIC50 [5] | MIC90 [5] | MIC [5] | MIC [6] | MIC50 [6] | MIC90 [6]
O=c1oc2ccc(F)cc2c2[nH]c(CN[C@H]3CC[C@H](n4c(=O)cnc5ncc(F)cc54)CC3)cc12 [Compound 4, 8-fluoro-2-({[trans-4-(7-fluoro-2-oxopyrido[2,3-b]pyrazin-1(2H)-yl)cyclohexyl]amino}methyl)[1]benzopyrano[4,3-b]pyrrol-4(1H)-one (formate salt)] | 0.12 µg/mL | 0.5 µg/mL | 0.25 µg/mL | 0.12 µg/mL | 0.12 µg/mL | ≤ 0.016 µg/mL | 0.03 µg/mL | ≤0.06 to 0.5 µg/mL | 0.12 µg/mL | 0.5 µg/mL | ≤0.06 to 0.5 µg/mL | 0.25 µg/mL | 0.5 µg/mL |  |  |  |  |  |  | 
COc1cnc2ncc(=O)n([C@H]3CC[C@H](NCc4cc5c(=O)oc6ccc(F)cc6c5[nH]4)CC3)c2c1 [Compound 5, 8-Fluoro-2-({[trans-4-(7-methoxy-2-oxopyrido[2,3-b]pyrazin-1(2H)-yl)cyclohexyl]amino}methyl)[1]benzopyrano[4,3-b]pyrrol-4(1H)-one hydrochloride] | 0.5 µg/mL | 1 µg/mL | 0.5 µg/mL | 0.12 µg/mL | ≤ 0.06 µg/mL | ≤ 0.016 µg/mL | 0.03 µg/mL | ≤0.06 to 0.5 µg/mL | 0.12 µg/mL | 0.5 µg/mL | 0.25 to 1 µg/mL | 0.5 µg/mL | 1 µg/mL | 0.25 µg/mL | 0.5 µg/mL | 1 µg/mL | 0.06 to 1 µg/mL | 0.5 to 16 µg/mL | 2 µg/mL | 4 µg/mL
Cl.O=c1oc2ccc(F)cc2c2[nH]c(CN[C@H]3CC[C@H](n4c(=O)ccc5ccc(F)cc54)CC3)cc12 [Compound 6, 8-fluoro-2-({[trans-4-(7-fluoro-2-oxoquinolin-1(2H)-yl)cyclohexyl]amino}methyl)[1]benzopyrano[4,3-b]pyrrol-4(1H)-one hydrochloride] |  |  |  |  |  |  |  |  |  |  |  |  |  | 0.5 µg/mL | 0.25 µg/mL | 0.25 µg/mL | 0.06 to 0.25 µg/mL | 0.25 to 4 µg/mL | 2 µg/mL | 4 µg/mL
